ChEMBL document CHEMBL1681764, “Isolation, structure identification and SAR studies on thiosugar sulfonium salts, neosalaprinol and neoponkoranol, as potent α-glucosidase inhibitors” (Bioorg Med Chem, 2011)

Legend:
[1] = target: T1, Sucrase-isomaltase, intestinal (Rattus norvegicus, UniProt P23739); experiment: Inhibition of rat intestinal isomaltase
[2] = target: T1, Sucrase-isomaltase, intestinal; experiment: Inhibition of rat intestinal sucrase
[3] = target: Sucrase-isomaltase, intestinal (Rattus norvegicus) (UniProt P23739); experiment: Inhibition of rat intestinal sucrase at >384 uM
Sucrase-isomaltase, intestinal (Rattus norvegicus), sequence (P23739 1-1013 limits assumed): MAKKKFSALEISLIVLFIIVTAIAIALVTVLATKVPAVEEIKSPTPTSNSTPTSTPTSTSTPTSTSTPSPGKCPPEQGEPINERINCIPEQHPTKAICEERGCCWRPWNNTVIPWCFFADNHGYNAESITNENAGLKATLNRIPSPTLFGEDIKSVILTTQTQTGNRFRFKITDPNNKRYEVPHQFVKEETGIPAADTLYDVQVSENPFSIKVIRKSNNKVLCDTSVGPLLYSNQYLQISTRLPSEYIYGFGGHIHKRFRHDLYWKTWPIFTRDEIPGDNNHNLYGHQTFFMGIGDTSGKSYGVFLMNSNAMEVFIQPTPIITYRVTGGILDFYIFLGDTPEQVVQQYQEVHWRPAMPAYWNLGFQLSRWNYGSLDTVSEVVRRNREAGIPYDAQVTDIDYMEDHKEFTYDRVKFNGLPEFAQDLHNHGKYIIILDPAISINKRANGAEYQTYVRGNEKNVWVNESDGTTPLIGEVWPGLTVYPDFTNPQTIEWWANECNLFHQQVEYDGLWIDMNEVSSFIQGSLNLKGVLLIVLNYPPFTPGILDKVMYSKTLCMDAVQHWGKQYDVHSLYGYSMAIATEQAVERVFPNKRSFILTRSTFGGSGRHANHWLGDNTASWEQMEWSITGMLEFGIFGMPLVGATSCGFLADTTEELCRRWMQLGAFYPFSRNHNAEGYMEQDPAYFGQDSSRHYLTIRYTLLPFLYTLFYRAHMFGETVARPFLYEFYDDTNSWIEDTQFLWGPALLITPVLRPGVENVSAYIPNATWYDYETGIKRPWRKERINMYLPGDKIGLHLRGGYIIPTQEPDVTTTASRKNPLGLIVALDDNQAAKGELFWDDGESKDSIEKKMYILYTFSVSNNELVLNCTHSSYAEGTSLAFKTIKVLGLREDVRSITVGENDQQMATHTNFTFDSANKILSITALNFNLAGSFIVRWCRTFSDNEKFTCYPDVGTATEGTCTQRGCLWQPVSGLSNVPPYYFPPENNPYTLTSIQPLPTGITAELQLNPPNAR
Sucrase-isomaltase, intestinal (Rattus norvegicus), sequence (P23739 1014-1841 limits assumed): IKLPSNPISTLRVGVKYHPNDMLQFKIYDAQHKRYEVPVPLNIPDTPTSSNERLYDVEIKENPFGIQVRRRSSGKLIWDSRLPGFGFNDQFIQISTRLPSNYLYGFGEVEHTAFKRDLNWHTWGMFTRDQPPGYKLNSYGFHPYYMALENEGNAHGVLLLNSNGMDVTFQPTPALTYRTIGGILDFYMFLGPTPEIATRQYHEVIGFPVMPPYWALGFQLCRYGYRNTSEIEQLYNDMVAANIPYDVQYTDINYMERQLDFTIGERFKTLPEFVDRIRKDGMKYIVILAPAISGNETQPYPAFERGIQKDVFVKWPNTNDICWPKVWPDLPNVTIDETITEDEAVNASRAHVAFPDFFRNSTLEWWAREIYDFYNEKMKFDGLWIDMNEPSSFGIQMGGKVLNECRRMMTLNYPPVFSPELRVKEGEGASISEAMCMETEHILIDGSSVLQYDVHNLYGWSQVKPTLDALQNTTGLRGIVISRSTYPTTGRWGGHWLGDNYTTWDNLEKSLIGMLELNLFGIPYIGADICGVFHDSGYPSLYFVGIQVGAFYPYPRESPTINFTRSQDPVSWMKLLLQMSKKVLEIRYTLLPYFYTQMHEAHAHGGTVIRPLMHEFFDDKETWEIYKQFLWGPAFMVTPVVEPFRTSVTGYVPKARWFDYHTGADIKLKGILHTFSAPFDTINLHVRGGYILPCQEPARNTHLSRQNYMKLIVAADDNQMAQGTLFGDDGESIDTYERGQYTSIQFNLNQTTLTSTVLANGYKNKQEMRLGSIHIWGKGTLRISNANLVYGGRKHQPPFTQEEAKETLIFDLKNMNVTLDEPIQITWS

[4] = target: Lysosomal alpha-glucosidase (Rattus norvegicus) (UniProt Q6P7A9); experiment: Inhibition of rat intestinal maltase at >384 uM
Lysosomal alpha-glucosidase (Rattus norvegicus), sequence (Q6P7A9 whole entry): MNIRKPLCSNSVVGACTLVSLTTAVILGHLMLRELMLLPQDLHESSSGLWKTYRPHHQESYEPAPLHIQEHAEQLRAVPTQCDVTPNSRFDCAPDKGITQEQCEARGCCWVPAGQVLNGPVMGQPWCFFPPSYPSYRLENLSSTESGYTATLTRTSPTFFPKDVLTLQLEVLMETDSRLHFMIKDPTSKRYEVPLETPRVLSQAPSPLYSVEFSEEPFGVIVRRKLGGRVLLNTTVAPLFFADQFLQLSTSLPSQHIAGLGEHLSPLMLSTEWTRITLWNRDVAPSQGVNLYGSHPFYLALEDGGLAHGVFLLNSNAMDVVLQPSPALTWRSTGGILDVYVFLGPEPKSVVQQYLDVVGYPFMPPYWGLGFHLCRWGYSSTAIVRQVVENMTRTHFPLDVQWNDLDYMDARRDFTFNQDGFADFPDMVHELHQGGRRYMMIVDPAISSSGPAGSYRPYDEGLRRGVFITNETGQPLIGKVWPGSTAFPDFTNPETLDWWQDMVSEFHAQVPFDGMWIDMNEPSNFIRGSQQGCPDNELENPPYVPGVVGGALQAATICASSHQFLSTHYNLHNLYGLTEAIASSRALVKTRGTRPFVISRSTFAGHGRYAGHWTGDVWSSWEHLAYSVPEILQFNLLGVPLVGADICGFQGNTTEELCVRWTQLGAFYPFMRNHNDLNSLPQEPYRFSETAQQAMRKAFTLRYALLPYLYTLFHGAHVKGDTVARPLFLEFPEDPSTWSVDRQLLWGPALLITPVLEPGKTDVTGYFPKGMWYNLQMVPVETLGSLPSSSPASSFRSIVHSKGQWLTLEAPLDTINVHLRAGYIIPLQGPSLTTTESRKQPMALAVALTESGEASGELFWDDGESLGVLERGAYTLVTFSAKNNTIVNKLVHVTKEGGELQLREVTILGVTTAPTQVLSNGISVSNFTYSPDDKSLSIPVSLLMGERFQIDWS

T1 sequence (P23739 1-1013 limits assumed): as the sequence (P23739 1-1013 limits assumed) above
T1 sequence (P23739 1014-1841 limits assumed): as the sequence (P23739 1014-1841 limits assumed) above

| IC50 [1] [nM] | IC50 [2] [nM] | inhibition [3] [%] | inhibition [4] [%] | SMILES |
| --- | --- | --- | --- | --- |
| 1000 | 2900 |  |  | OC[C@@H](O)[C@@H](O)[C@H](O)[C@H](O)C[S@+]1C[C@@H](O)[C@H](O)[C@H]1CO |
| > 329000 | > 329000 |  |  | O=S(=O)([O-])OC[C@@H](O)C[S@+]1C[C@@H](O)[C@H](O)[C@H]1CO |
| 300 | 1300 |  |  | [O-][C@@H](CO)[C@H](O)C[S@+]1C[C@@H](O)[C@H](O)[C@H]1CO [NEOSALACINOL] |
| 2600 | 290 |  |  | O=S(=O)([O-])O[C@@H]([C@H](O)[C@@H](O)CO)[C@H](O)C[S@+]1C[C@@H](O)[C@H](O)[C@H]1CO [PONKORANOL] |
| 5700 | 750 |  |  | O=S(=O)([O-])O[C@@H]([C@H](O)[C@H](O)[C@@H](O)CO)[C@H](O)C[S+]1C[C@@H](O)[C@H](O)[C@H]1CO (stereo partly drawn) [KOTALANOL] |
| 1000 | 300 |  |  | OC[C@@H]1[C@@H](O)[C@H](O)C[S@@+]1C[C@@H](O)[C@H](O)[C@H](O)[C@@H](O)CO |
| 1300 | 1600 |  |  | O=S(=O)([O-])O[C@@H](CO)[C@H](O)C[S@+]1C[C@@H](O)[C@H](O)[C@H]1CO [SALACINOL] |
| 52900 | > 384000 | 34.5 |  | OC[C@@H](O)C[S@+]1C[C@@H](O)[C@H](O)[C@H]1CO |
| 1400 | 1000 |  |  | OC[C@@H]1[C@@H](O)[C@H](O)C[S@@+]1C[C@@H](O)[C@@H](O)[C@H](O)[C@@H](O)CO [NEOPONKORANOL] |
| 15000 | > 329000 |  |  | O=S(=O)([O-])OC[C@H](O)C[S@+]1C[C@@H](O)[C@H](O)[C@H]1CO [SALAPRINOL] |
| 1800 | 4500 |  |  | OC[C@@H]1[C@@H](O)[C@H](O)C[S@@+]1C[C@@H](O)[C@@H](O)[C@H](O)[C@H](O)[C@@H](O)CO [NEOKOTALANOL] |
| 6500 | 90000 |  | 35 | OC[C@H](O)C[S@+]1C[C@@H](O)[C@H](O)[C@H]1CO [NEOSALAPRINOL] |

| SMILES | IC50 [1] [nM] | IC50 [2] [nM] | inhibition [3] [%] | inhibition [4] [%] |
| --- | --- | --- | --- | --- |
| OCC(CO)N[C@H]1C[C@](O)(CO)[C@@H](O)[C@H](O)[C@H]1O [VOGLIBOSE] | 2100 | 200 |  |  |
